From publication PMC2533354, “Highly specific inhibition of leukaemia virus membrane fusion by interaction of peptide antagonists with a conserved region of the coiled coil of envelope” (Retrovirology, 2008)
Where a SMILES comes first, the peptide text is derived from it.

Assays:
[1] = Relative peptide solubility by laser nephelometry; assay type: physicochemical; settings: filtered PBS with 1.5 % DMSO, maximum solubility in aqueous solution, two-fold serial dilution from DMSO stock, 200 μl, 1 hr at room temperature, laser nephelometry (forward scattered light, NEPHELOstar), duplicate wells, in solution if reading up to 3-fold the DMSO control
Protocol: A two-fold serial dilution of peptide in DMSO was performed, and added in duplicate to 96-well microplates. Filtered PBS was added to give a total volume of 200 μl and a final DMSO concentration of 1.5 % in all wells. The plates were incubated at room temperature for 1 hr and the relative solubility of peptides was established by measuring forward scattered light using a NEPHELOstar laser-based microplate nephelometer (BMG LABTECH). Wells containing PBS and 1.5 % DMSO only were used as blanks. Data analysis was carried out using ActivityBase, and peptides giving readings up to and including 3-fold higher than the average reading for the DMSO control were considered to be in solution at the concentrations specified.

HTLV-1 envelope = target: T1, HTLV-1 envelope (Human T-cell leukemia virus 1, UniProt P03381); assay: Syncytium interference assay, HTLV-1 envelope-expressing HeLa effector cells; assay type: cell-based; settings: concentrations up to 20 μM and above; result in words
T1 construct: expressed in transfected cells; host or cells: HeLa
T1 sequence (P03381 313-488): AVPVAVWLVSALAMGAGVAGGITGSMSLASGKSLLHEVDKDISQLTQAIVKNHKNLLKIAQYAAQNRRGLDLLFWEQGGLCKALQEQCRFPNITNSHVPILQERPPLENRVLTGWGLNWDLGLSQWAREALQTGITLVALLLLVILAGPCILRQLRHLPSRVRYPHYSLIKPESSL
Protocol: (§1) Briefly, HeLa cells for use as effector cells were transfected with the envelope expression vector pHTE-1 or with equal amounts of pCMV-BLVenv-RRE and pRSV-Rev using the Genejuice™ transfection reagent (Novagen) in accordance with the manufacturer's instructions. 24 h later, 3 × 10^5 effector cells were added to 7 × 10^5 untransfected HeLa target cells in six-well dishes (Nunc). Where appropriate, the co-culture was incubated in the presence of peptides at the concentrations specified. To assess the ability of the peptides to inhibit fusion induced by virally expressed BLV envelope, 2 × 10^5 BLV-infected FLK cells were used as effectors and added to 8 × 10^5 uninfected HeLa cells. After incubation at 37°C for 16 h, cells were washed twice with PBS and fixed in PBS + 3% paraformaldehyde. Assays were performed in triplicate and the number of syncytia (defined as multinucleated cells with 4 or more nuclei) from 10 low-power fields (LPF) per replicate was scored by light microscopy; some assays were stained using Giemsa. A syncytium formation value of 100% is defined as the number of syncytia formed in the absence of peptide but in the presence of 1.5% DMSO.

BLV envelope = target: T2, BLV envelope (Bovine leukemia virus, UniProt P51519); assay: Syncytium interference assay, BLV envelope-expressing HeLa effector cells; assay type: cell-based; settings: peptide at 20 μM; BLV envelope-expressing HeLa effectors (Figure 4B)
T2 construct: A fragment encompassing the entire BLV envelope open reading frame; expressed in transfected cells; host or cells: HeLa (co-transfected with pRSV-Rev)
T2 sequence (P51519 302-515): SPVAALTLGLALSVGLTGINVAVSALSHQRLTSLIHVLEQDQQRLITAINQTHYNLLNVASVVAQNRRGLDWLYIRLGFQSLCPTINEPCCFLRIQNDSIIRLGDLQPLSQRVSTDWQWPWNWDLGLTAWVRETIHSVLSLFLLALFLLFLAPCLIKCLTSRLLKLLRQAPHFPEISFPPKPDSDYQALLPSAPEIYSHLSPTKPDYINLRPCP
Protocol: as §1

[2] = system: virally expressed BLV envelope (BLV-infected FLK cells); settings: chronically BLV infected FLK effector cells + HeLa target cells; result in words (Figure 3C)
Protocol: as §1

With `CC[C@H](C)[C@H](NC(=O)[C@H](CCCNC(=N)N)NC(=O)[C@H](CC(C)C)NC(=O)[C@H](Cc1ccccc1)NC(=O)[C@H](CS)NC(=O)[C@H](CS)NC(C)=O)C(=O)N[C@@H](CCC(N)=O)C(=O)N[C@@H](CC(N)=O)C(=O)N[C@@H](CC(=O)O)C(=O)N[C@@H](CO)C(=O)N[C@H](C(=O)N[C@H](C(=O)N[C@@H](CCCNC(=N)N)C(=O)N[C@@H](CC(C)C)C(=O)NCC(=O)N[C@@H](CC(=O)O)C(=O)N[C@@H](CC(C)C)C(=O)N[C@@H](CCC(N)=O)C(=O)N1CCC[C@H]1C(=O)N[C@@H](CC(C)C)C(=O)N[C@@H](CO)C(=O)N[C@@H](CCC(N)=O)C(=O)N[C@@H](CCCNC(=N)N)C(=O)N[C@H](C(=O)N[C@@H](CO)C(=O)N[C@H](C(=O)N[C@@H](CC(=O)O)C(=O)N[C@@H](Cc1c[nH]c2ccccc12)C(=O)N[C@@H](CCC(N)=O)C(N)=O)[C@@H](C)O)C(C)C)[C@@H](C)CC)[C@@H](C)CC` [P^BLV-391] (Ac-CCFLRIQNDSIIRLGDLQPLSQRVSTDWQ-NH2) the solubility kinetic at 1 h [1] was greater than 90 µM, the “Inhibition of membrane fusion induced by HTLV-1 envelope” value (HTLV-1 envelope) was “failed to inhibit” and the “Block of syncytium formation” value (BLV envelope) was greater than 95%. The “Inhibition of membrane fusion induced by virally expressed BLV envelope” value [2] was “robustly antagonized”.
